Experiments:
[1] = system: PC-3 prostate cancer cell line; experiment: SRB assay cell viability, PC-3 prostate cancer cell line; type: cell-based, human; settings: PC-3 prostate cancer cell line, Table II prints no unit, μM printed, read-out: SRB assay: 50% inhibition of cancer cell proliferation of sample concentration (IC50) of PC-3 prostate cancer cell line
HL-60, TB = experiment: NCI one-dose screening, leukemia HL-60, TB; type: cell-based, human; settings: 10 μM
MOLT-4 = experiment: NCI one-dose screening, leukemia MOLT-4; type: cell-based, human; settings: 10 μM
SR = experiment: NCI one-dose screening, leukemia SR; type: cell-based, human; settings: 10 μM
PRMI-8226 cell line = experiment: NCI one-dose screening, leukemia PRMI-8226; type: cell-based, human; settings: 10 μM
K562cell line = experiment: NCI one-dose screening, leukemia K562; type: cell-based, human; settings: 10 μM
EKVX = experiment: NCI one-dose screening, non-small cell lung cancer EKVX; type: cell-based, human; settings: 10 μM
HOP-62 = experiment: NCI one-dose screening, non-small cell lung cancer HOP-62; type: cell-based, human; settings: 10 μM
HOP-92 = experiment: NCI one-dose screening, non-small cell lung cancer HOP-92; type: cell-based, human; settings: 10 μM
NCI-H226 = experiment: NCI one-dose screening, non-small cell lung cancer NCI-H226; type: cell-based, human; settings: 10 μM
NCI-H23 = experiment: NCI one-dose screening, non-small cell lung cancer NCI-H23; type: cell-based, human; settings: 10 μM
NCI-H460 = experiment: NCI one-dose screening, non-small cell lung cancer NCI-H460; type: cell-based, human; settings: 10 μM
NCI-H522 = experiment: NCI one-dose screening, non-small cell lung cancer NCI-H522; type: cell-based, human; settings: 10 μM
A549/ATCC = experiment: NCI one-dose screening, non-small cell lung cancer A549/ATCC; type: cell-based, human; settings: 10 μM
COLO 205 = experiment: NCI one-dose screening, colon cancer COLO 205; type: cell-based, human; settings: 10 μM
HCC-2998 = experiment: NCI one-dose screening, colon cancer HCC-2998; type: cell-based, human; settings: 10 μM
HCT-116 = experiment: NCI one-dose screening, colon cancer HCT-116; type: cell-based, human; settings: 10 μM
HCT-15 = experiment: NCI one-dose screening, colon cancer HCT-15; type: cell-based, human; settings: 10 μM
KM12 = experiment: NCI one-dose screening, colon cancer KM12; type: cell-based, human; settings: 10 μM
HT29 = experiment: NCI one-dose screening, colon cancer HT29; type: cell-based, human; settings: 10 μM
SF-268 = experiment: NCI one-dose screening, CNS cancer SF-268; type: cell-based, human; settings: 10 μM
SF-295 = experiment: NCI one-dose screening, CNS cancer SF-295; type: cell-based, human; settings: 10 μM
SF-539 = experiment: NCI one-dose screening, CNS cancer SF-539; type: cell-based, human; settings: 10 μM
SNB-19 = experiment: NCI one-dose screening, CNS cancer SNB-19; type: cell-based, human; settings: 10 μM
SNB-75 = experiment: NCI one-dose screening, CNS cancer SNB-75; type: cell-based, human; settings: 10 μM
U251 = experiment: NCI one-dose screening, CNS cancer U251; type: cell-based, human; settings: 10 μM
LOX IMVI = experiment: NCI one-dose screening, melanoma LOX IMVI; type: cell-based, human; settings: 10 μM
MALME-3M = experiment: NCI one-dose screening, melanoma MALME-3M; type: cell-based, human; settings: 10 μM
M14 = experiment: NCI one-dose screening, melanoma M14; type: cell-based, human; settings: 10 μM
UACC-62 = experiment: NCI one-dose screening, melanoma UACC-62; type: cell-based, human; settings: 10 μM
UACC-257 = experiment: NCI one-dose screening, melanoma UACC-257; type: cell-based, human; settings: 10 μM
SK-MEL-2 = experiment: NCI one-dose screening, melanoma SK-MEL-2; type: cell-based, human; settings: 10 μM
SK-MEL-28 = experiment: NCI one-dose screening, melanoma SK-MEL-28; type: cell-based, human; settings: 10 μM
SK-MEL-5 = experiment: NCI one-dose screening, melanoma SK-MEL-5; type: cell-based, human; settings: 10 μM
IGROV1 = experiment: NCI one-dose screening, ovarian cancer IGROV1; type: cell-based, human; settings: 10 μM
OVCAR-3 = experiment: NCI one-dose screening, ovarian cancer OVCAR-3; type: cell-based, human; settings: 10 μM
OVCAR-5 = experiment: NCI one-dose screening, ovarian cancer OVCAR-5; type: cell-based, human; settings: 10 μM
OVCAR-8 = experiment: NCI one-dose screening, ovarian cancer OVCAR-8; type: cell-based, human; settings: 10 μM
SK-OV-3 = experiment: NCI one-dose screening, ovarian cancer SK-OV-3; type: cell-based, human; settings: 10 μM
786-O = experiment: NCI one-dose screening, renal cancer 786-O; type: cell-based, human; settings: 10 μM
CAKI-1 = experiment: NCI one-dose screening, renal cancer CAKI-1; type: cell-based, human; settings: 10 μM
[2] = NCI one-dose screening, renal cancer A489; type: cell-based, human; settings: 10 μM
ACHN = experiment: NCI one-dose screening, renal cancer ACHN; type: cell-based, human; settings: 10 μM
SN12C = experiment: NCI one-dose screening, renal cancer SN12C; type: cell-based, human; settings: 10 μM
TK-10 = experiment: NCI one-dose screening, renal cancer TK-10; type: cell-based, human; settings: 10 μM
UO-31 = experiment: NCI one-dose screening, renal cancer UO-31; type: cell-based, human; settings: 10 μM
RXF, 393 = experiment: NCI one-dose screening, renal cancer RXF, 393; type: cell-based, human; settings: 10 μM
DU145 = experiment: NCI one-dose screening, prostate cancer DU145; type: cell-based, human; settings: 10 μM
PC-3 = experiment: NCI one-dose screening, prostate cancer PC-3; type: cell-based, human; settings: 10 μM
MCF7 = experiment: NCI one-dose screening, breast cancer MCF7; type: cell-based, human; settings: 10 μM
HS 578-T = experiment: NCI one-dose screening, breast cancer HS 578-T; type: cell-based, human; settings: 10 μM; Breast cancer
MDA-MB-231/ATCC = experiment: NCI one-dose screening, breast cancer MDA-MB-231/ATCC; type: cell-based, human; settings: 10 μM
MDA-MB-468 = experiment: NCI one-dose screening, breast cancer MDA-MB-468; type: cell-based, human; settings: 10 μM
NCl/ADR-RES = experiment: NCI one-dose screening, breast cancer NCl/ADR-RES; type: cell-based, human; settings: 10 μM; listed under Ovarian cancer
BT-549 = experiment: NCI one-dose screening, breast cancer BT-549; type: cell-based, human; settings: 10 μM
T-47D = experiment: NCI one-dose screening, breast cancer T-47D; type: cell-based, human; settings: 10 μM
MDA, -MB-435 = experiment: NCI one-dose screening, breast cancer MDA, -MB-435; type: cell-based, human; settings: 10 μM; listed under Melanoma
human tumor cell lines = experiment: NCI one-dose screening, Mean / Delta / Range of growth percent over all tested cell lines; type: cell-based; settings: 10 μM

Which results are given for `O=C1c2ccccc2C(=O)c2c1cc(Sc1ccccc1Br)c1nsnc21` [C27, 4-(2-bromo-phenylthio)anthra[2,1-c] [1,2,5]thiadiazol oxazole-6,11-dione]?
IC50 [1]: 5.76 µM; Growth Percent HL-60(TB) (HL-60, TB): −43.96%; Growth Percent MOLT-4 (MOLT-4): 29.67%; Growth Percent SR (SR): 2.94%; Growth Percent RPMI-8226 (PRMI-8226 cell line): 9.40%; Growth Percent K562 (K562cell line): 29.66%; Growth Percent EKVX (EKVX): 77.74%; Growth Percent HOP-62 (HOP-62): 4.88%; Growth Percent HOP-92 (HOP-92): 37.57%; Growth Percent NCI-H226 (NCI-H226): 92.07%; Growth Percent NCI-H23 (NCI-H23): 18.02%; Growth Percent NCI-H460 (NCI-H460): 58.24%; Growth Percent NCI-H522 (NCI-H522): 30.77%; Growth Percent A549/ATCC (A549/ATCC): 95.37%; Growth Percent COLO 205 (COLO 205): 97.36%; Growth Percent HCC-2998 (HCC-2998): 78.44%; Growth Percent HCT-116 (HCT-116): 16.62%; Growth Percent HCT-15 (HCT-15): 39.74%; Growth Percent KM12 (KM12): 57.85%; Growth Percent HT29 (HT29): 96.46%; Growth Percent SF-268 (SF-268): −5.11%; Growth Percent SF-295 (SF-295): 100.07%; Growth Percent SF-539 (SF-539): −5.66%; Growth Percent SNB-19 (SNB-19): 71.38%; Growth Percent SNB-75 (SNB-75): 47.20%; Growth Percent U251 (U251): 11.49%; Growth Percent LOX IMVI (LOX IMVI): −15.34%; Growth Percent MALME-3M (MALME-3M): 35.27%; Growth Percent M14 (M14): 59.45%; Growth Percent UACC-62 (UACC-62): 39.58%; Growth Percent UACC-257 (UACC-257): 4.75%; Growth Percent SK-MEL-2 (SK-MEL-2): 35.02%; Growth Percent SK-MEL-28 (SK-MEL-28): 64.65%; Growth Percent SK-MEL-5 (SK-MEL-5): 46.26%; Growth Percent IGROV1 (IGROV1): 27.94%; Growth Percent OVCAR-3 (OVCAR-3): −65.85%; Growth Percent OVCAR-5 (OVCAR-5): 120.52%; Growth Percent OVCAR-8 (OVCAR-8): 2.47%; Growth Percent SK-OV-3 (SK-OV-3): 66.68%; Growth Percent 786-0 (786-O): −6.19%; Growth Percent CAKI-1 (CAKI-1): 29.67%; Growth Percent A498 [2]: 24.25%; Growth Percent ACHN (ACHN): 25.50%; Growth Percent SN12C (SN12C): 22.56%; Growth Percent TK-10 (TK-10): 76.52%; Growth Percent UO-31 (UO-31): 56.15%; Growth Percent RXF 393 (RXF, 393): −8.53%; Growth Percent DU145 (DU145): 50.57%; Growth Percent PC-3 (PC-3): 4.23%; Growth Percent MCF7 (MCF7): −6.39%; Growth Percent HS 578T (HS 578-T): 54.25%; Growth Percent MDA-MB-231/ATCC (MDA-MB-231/ATCC): 16.85%; Growth Percent MDA-MB-468 (MDA-MB-468): −79.88%; Growth Percent NCI/ADR-RES (NCl/ADR-RES): −29.94%; Growth Percent BT-549 (BT-549): 52.19%; Growth Percent T-47D (T-47D): −33.05%; Growth Percent MDA-MB-435 (MDA, -MB-435): −72.95%; Growth Percent Delta (human tumor cell lines; delta over all cell lines): 109.49%; Growth Percent Mean (human tumor cell lines; mean over all cell lines): 29.61%; Growth Percent Range (human tumor cell lines; range over all cell lines): 200.40%

Reference: patent US8877748B2, “Heterocyclic fused anthraquinone derivatives, manufacturing method and pharmaceutical composition using thereof” (National Defense Medical Center, priority 2012, dated 2014)
